Experimental findings from patent publication US6586441B2, “Adenosine receptor ligands and their use in the treatment of disease” (Hoffman-La Roche Inc., priority 2000, dated 2003) are described below.

Experiment [1] deals with T1, human adenosine A1 receptor (Homo sapiens, UniProt P30542).
T1 construct: expressed in transfected cells; host or cells: CHO cells, semliki forest virus expression system; membrane preparation
T1 sequence (P30542 1-326): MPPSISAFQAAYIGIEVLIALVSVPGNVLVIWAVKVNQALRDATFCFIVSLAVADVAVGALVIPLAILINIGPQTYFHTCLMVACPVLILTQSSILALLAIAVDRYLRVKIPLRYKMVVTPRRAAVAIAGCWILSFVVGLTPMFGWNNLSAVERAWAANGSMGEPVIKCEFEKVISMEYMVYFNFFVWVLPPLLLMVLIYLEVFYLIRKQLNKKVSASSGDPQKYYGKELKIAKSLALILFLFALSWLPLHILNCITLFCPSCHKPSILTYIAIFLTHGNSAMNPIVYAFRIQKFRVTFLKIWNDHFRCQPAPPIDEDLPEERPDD
The experiment in a line: Human adenosine A1 receptor [3H]-DPCPX binding assay. Particulars: membranes of CHO cells, read-out: hA1 (pKi) (converted). The procedure: (§1) The gene encoding human adenosine A1 receptor was recombinantly introduced and expressed in chinese hamster ovary (CHO) cells using the semliki forest virus expression system. Cells were harvested, washed twice by centrifugation, homogenised and again washed by centrifugation. The final washed membrane pellet was suspended in a Tris (50 mM) buffer containing 120 mM NaCl, 5 mM KCl, 2 mM CaCl2 and 10 mM MgCl2 (pH 7.4) (buffer A). The [^3H]-DPCPX (([propyl-3H]8-cyclopentyl-1,3-dipropyxanthine); 0.6 nM) binding assay was carried out in 96-well plates in the presence of 2.5 μg of membrane protein, 0.5 mg of Ysi-poly-1-lysine SPA beads and 0. I U adenosine deaminase in a final volume of 200 μl of buffer A. Non-specific binding was defined using xanthine amine congener (XAC; 2 μM). Compounds were tested at 10 concentrations from 10 μM-0.3 nM. All assays were conducted in duplicate and repeated at least two times. Assay plates were incubated for 1 hour at room temperature before centrifugation and then bound ligand determined using a Packard Topcount scintillation counter. IC50 values were calculated using a non-linear curve fitting program and Ki values calculated using the Cheng-Prussoff equation.

Experiment [2] has as its target T2, human adenosine A2A receptor (Homo sapiens, UniProt P29274).
T2 construct: expressed in transfected cells; host or cells: CHO cells, semliki forest virus expression system; membrane preparation
The experiment in a line: Human adenosine A2A receptor [3H]-SCH-58261 binding assay. Particulars: for hA2 (pKi): human A2A receptor, selectivity table; for Ki / pKi (affinity to the human A2a receptor): human A2a receptor, membranes of CHO cells, [3H]-SCH-58261; for Ki: read-out: pKi (affinity to the human A2a receptor) (converted). The procedure: as §1, with “A2A” for “A1”, “[^3H]-SCH-58261 (Dionisotti et al., 1997, Br. J. Pharmacol. 121, 353; 1” for “[^3H]-DPCPX (([propyl-3H]8-cyclopentyl-1,3-dipropyxanthine); 0.6”, “0.1” for “0. I”, “[…]).” for “μM).”

Structures can show the parent of a compound that is named as a salt.

T2 sequence (P29274 whole entry): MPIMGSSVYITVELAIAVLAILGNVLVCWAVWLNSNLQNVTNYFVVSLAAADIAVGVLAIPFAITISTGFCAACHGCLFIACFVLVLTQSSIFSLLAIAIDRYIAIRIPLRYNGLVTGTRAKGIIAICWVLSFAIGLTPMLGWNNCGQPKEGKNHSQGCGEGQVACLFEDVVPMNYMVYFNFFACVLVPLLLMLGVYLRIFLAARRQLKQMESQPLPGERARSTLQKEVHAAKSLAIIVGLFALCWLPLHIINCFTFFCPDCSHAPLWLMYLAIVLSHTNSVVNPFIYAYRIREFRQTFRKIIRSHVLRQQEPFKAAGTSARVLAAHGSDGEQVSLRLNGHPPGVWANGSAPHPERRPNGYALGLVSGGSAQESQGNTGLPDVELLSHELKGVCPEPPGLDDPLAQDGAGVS

In the case of `N#Cc1c(NCc2ncc(C(F)(F)F)cc2Cl)nc(N)nc1-c1ccco1` [Example 400, 2-Amino-4-[(3-chloro-5-trifluoromethyl-pyridin-2-yl-methyl)-amino]-6-furan-2-yl-pyrimidine-5-carbonitrile], the figures for the Ki in experiment [1] and in experiment [2] were 4470 nM and 3.63 nM, respectively. For the same compound, the “hA2 (pKi)” value in experiment [2] was 8.44. On the same counts, the results for `Cc1ccc(CNc2nc(N)nc(-c3ccco3)c2C#N)cc1` [Example 290, 2-Amino-4-furan-2-yl-6-(4-methyl-benzylamino)-pyrimidine-5-carbonitrile] are 2040 nM, 6.76 nM and 8.17. In the same order, the values of `N#Cc1c(NCc2ccc(C(F)(F)F)cc2)nc(N)nc1-c1ccco1` [Example 345, 2-Amino-4-furan-2-yl-6-(4-trifluoromethyl-benzylamino)-pyrimidine-5-carbonitrile] are 6310 nM, 4.17 nM and 8.38. Take `N#Cc1c(SCCCc2ccccc2)nc(N)nc1-c1ccco1` [Example 234, 2-Amino-4-furan-2-yl-6-(3-phenyl-propylsulfanl)-pyrimidine-5-carbonitrile]: in experiment [2], the Ki was 5.5 nM. Same read-out and setting: with `N#Cc1c(SCc2ccccn2)nc(N)nc1-c1ccco1` [Example 284, 2-Amino-4-furan-2-yl-6-(pyridin-2-ylmethylsulfanyl)-pyrimidine-5-carbonitrile] the figure was 3.89 nM; with `N#Cc1c(OCc2ccccn2)nc(N)nc1-c1ccccc1` [Example 105, 2-Amino-4-phenyl-6-(pyridin-2-ylmethoxy)-pyrimidine-5-carbonitrile], 7.41 nM. Still for that read-out and setting: with `N#Cc1coc(-c2nc(N)nc(SCCc3ccccn3)c2C#N)c1` [Example 535, 2-Amino-4-(4-cyano-furan-2-yl)-6-(2-pyridin-2-yl-ethylsulfanyl)-pyrimidine-5-carbonitrile] the figure was 3.98 nM. On the same count and under the same terms, with `N#Cc1c(SCc2ccccc2)nc(N)nc1-c1ccco1` [Example 52, 2-Amino-4-benzylsulfanyl-6-furan-2-yl-pyrimidine-5-carbonitrile] the figure was 3.98 nM. Turning to `N#Cc1c(OCc2cc3ccccc3cn2)nc(N)nc1-c1ccco1` [Example 366, 2-Amino-4-furan-2-yl-6-(isoguinolin-3-yl-methoxy)-pyrimidine-5-carbonitrile], the Ki in experiment [2] is 1.82 nM.

Regarding `N#Cc1c(NCc2ccc3ccccc3c2)nc(N)nc1-c1ccco1` [Example 298, 2-Amino-4-furan-2-yl-6-[(naphthalen-2-ylmethyl)-amino]-pyrimidine-5-carbonitrile], the Ki in experiment [1] is 6920 nM. Besides, in experiment [2], the “hA2 (pKi)” value is recorded as 8.23 and the Ki was 5.89 nM. Take `N#Cc1c(SCCc2ccccc2)nc(N)nc1-c1ccco1` [Example 233, 2-Amino-4-furan-2-yl-6-phenethylsulfanyl-pyrimidine-5-carbonitrile]: the Ki in experiment [2] is 2.75 nM.

`Cc1cccnc1CNc1nc(N)nc(-c2ccco2)c1C#N` [Example 368, 2-Amino-4-furan-2-yl-6-[(3-methyl-pyridin-2-yl-methyl)-amino]-pyrimidine-5-carbonitrile]: the Ki in experiment [2] is 1.86 nM. Consider `N#Cc1c(OCc2ccccn2)nc(N)nc1-c1cccs1` [Example 206, 2-Amino-4-(pyridin-2-ylmethoxy)-6-thiophen-2-yl-pyrimidine-5-carbonitrile], for which the Ki in experiment [2] is 9.55 nM.

As to `N#Cc1c(OCC=Cc2ccccc2)nc(N)nc1-c1ccco1` [Example 278, 2-Amino-4-furan-2-yl-6-(3-phenyl-allyloxy)-pyrimidine-5-carbonitrile], the Ki in experiment [2] is 3.72 nM. On the same count and under the same terms, in the case of `C=Cc1ccc(CNc2nc(N)nc(-c3ccco3)c2C#N)cc1` [Example 374, 2-Amino-4-furan-2-yl-6-(4-vinyl-benzylamino)-pyrimidine-5-carbonitrile] it was 9.33 nM; in that of `N#Cc1c(OCCCc2ccccc2)nc(N)nc1-c1ccco1` [Example 54, 2-Amino-4-furan-2-yl-6-(3-phenyl-propoxy)-pyrimidine-5-carbonitrile], 7.41 nM; in that of `Nc1nc(NCCCc2ccccc2)c(Br)c(-c2ccco2)n1` [Example 208, 5-Bromo-6-furan-2-yl-N4-(3-phenyl-propyl)-pyrimidine-2,4-diamine hydrochloride], 9.12 nM. `Cc1ccc(COc2nc(N)nc(-c3ccco3)c2C#N)cn1` [Example 381, 2-Amino-4-furan-2-yl-6-(6-methyl-pyridin-3-yl-methoxy)-pyrimidine-5-carbonitrile]: in experiment [2], the Ki is 3.47 nM. As for `N#Cc1c(SCCc2ccccn2)nc(N)nc1-c1ccc(Cl)o1` [Example 478], the “pKi (affinity to the human A2a receptor)” value in experiment [2] is 8.96. As for `Nc1nc(OCCCc2ccccc2)c(Br)c(-c2ccco2)n1` [Example 230, 5-Bromo-4-furan-2-yl-6-(3-phenyl-propoxy)-pyrimidin-2-yl-amine], in experiment [2], the Ki is 1.66 nM.

In the case of `N#Cc1c(NCc2ccc3ccccc3n2)nc(N)nc1-c1ccco1` [Example 297, 2-Amino-4-furan-2-yl-6-[(quinolin-2-ylmethyl)-amino]-pyrimidine-5-carbonitrile], in experiment [2], the Ki was 1.38 nM. Regarding `Cc1ccnc(CNc2nc(N)nc(C3=CCCO3)c2C#N)c1` [Example 464, 2-Amino-4-(4,5-dihydro-furan-2-yl)-6-[(4-methyl-pyridin-2-ylmethyl)-amino]-pyrimidine-5-carbonitrile], the “pKi (affinity to the human A2a receptor)” value in experiment [2] was 8.12.

Turning to `Cc1cccnc1COc1nc(N)nc(-c2ccc(Cl)o2)c1C#N` [Example 530, 2-Amino-4-(5-chloro-furan-2-yl)-6-(3-methyl-pyridin-2-yl-methoxy)-pyrimidine-5-carbonitrile], the Ki in experiment [2] was 1.74 nM. On the same count and under the same terms, in the case of `N#Cc1c(OC2CCCCC2)nc(N)nc1-c1ccco1` [Example 55, 2-Amino-4-cyclohexyloxy-6-furan-2-yl-pyrimidine-5-carbonitrile] it was 7.41 nM; in that of `Cc1ccc(CNc2cc(N)nc(-c3ccco3)c2C#N)nc1` [Example 377, 6-Amino-2-furan-2-yl-4-[(5-methyl-pyridin-2-yl-methyl)-amino]-nicotinonitrile], 7.76 nM; in that of `N#Cc1c(NCc2ccccn2)nc(N)nc1-c1ccco1` [Example 283, 2-Amino-4-furan-2-yl-6-[(pyridin-2-ylmethyl)-amino]-pyrimidine-5-carbonitrile], 5.89 nM.
